From PubChem BioAssay (NCI)
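Cells were grown in 96-well plates and exposed to each compound for 48 hours at five concentrations; endpoints were interpolated linearly between bracketing concentrations, or set to the highest concentration if not reached. GI50 marks 50% less growth. At the TGI there is no net growth.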

Tests used:
Assay in all cases: DTP human tumour cell line panel, 48 h
[1] = system: PC-3 prostate
[2] = system: SK-MEL-28 melanoma
[3] = system: ACHN renal
[4] = system: CAKI-1 renal
[5] = system: MDA-MB-231 breast
[6] = system: T-47D breast
[7] = system: K-562 leukemia
[8] = system: UACC-62 melanoma
[9] = system: COLO 205 colon
[10] = system: BT-549 breast

SMILES | TGI [1] | TGI [2] | TGI [3] | TGI [4] | TGI [5] | TGI [6] | TGI [7] | TGI [8] | TGI [9] | TGI [10] | GI50 [8] | GI50 [1] | GI50 [2] | GI50 [3] | GI50 [4] | GI50 [5] | GI50 [6] | GI50 [7] | GI50 [9] | GI50 [10]
Cc1ccc2c(c1C)C(=O)/C(=C/c1cccc(C)c1C(=O)O)C2 | > 100 µM | > 100 µM | > 100 µM | > 100 µM | > 100 µM | > 100 µM | > 100 µM | > 100 µM | > 100 µM | > 100 µM | – | – | – | – | – | – | – | – | – | –
CC[C@@]1(O)C(=O)OCc2c1cc1n(c2=O)Cc2c-1nc1ccccc1c2/C=N\NC(=O)C(N)Cc1c[nH]c2ccccc12 (stereo partly specified) | > 100 µM | > 100 µM | 0.446 µM | 2.52 µM | > 100 µM | > 100 µM | > 100 µM | 0.712 µM | > 100 µM | > 100 µM | – | – | – | – | – | – | – | – | – | –
COc1cc2c3c(cc(Cl)nc3c1OC)C(O)(CC(=O)c1ccccc1)C(=O)N2 (stereo unspecified) | 29.2 µM | 33.5 µM | 28.3 µM | 31.6 µM | 31.2 µM | > 100 µM | 16.7 µM | 15.9 µM | 52.4 µM | 30.4 µM | – | – | – | – | – | – | – | – | – | –
O=C(NCCCCCN1CCC2(CCCCC2)CC1)C(C1CCCCC1)C1CCCCC1 | 8.17 µM | 3.64 µM | 8.68 µM | 11.6 µM | 10.8 µM | 8.43 µM | 3.5 µM | 7.2 µM | 2.84 µM | 15.4 µM | – | – | – | – | – | – | – | – | – | –
O=C1C(c2c(O)[nH]c3ccc(S(=O)(=O)NCCO)cc23)=Nc2ccccc21 | 54.3 µM | > 100 µM | > 100 µM | > 100 µM | 31.6 µM | 50.4 µM | 69.4 µM | > 100 µM | > 100 µM | 18.7 µM | – | – | – | – | – | – | – | – | – | –
CC(C)(C)[Si](C)(C)OC[C@H](/C=C\CCCC(=O)O)NC1(c2ccccc2)c2ccccc2-c2ccccc21 | 40.3 µM | 33 µM | 49.5 µM | 93.9 µM | 39.3 µM | > 100 µM | 45.5 µM | 36 µM | 26.5 µM | 91.6 µM | – | – | – | – | – | – | – | – | – | –
CCOc1cc2c(cc1O)C(N)C[C@@H]1[C@@H]2CC[C@]2(C)[C@@H](O)CC[C@@H]12 (stereo partly specified) | > 100 µM | > 100 µM | > 100 µM | > 100 µM | > 100 µM | > 100 µM | 73.2 µM | > 100 µM | > 100 µM | > 100 µM | 18.7 µM | – | – | – | – | – | – | – | – | –
C=C1C(=O)OC2C3OC(C)(CCC(O)C3COC(C)=O)CC(OC(=O)/C(=C/C)COC(C)=O)C12 (stereo unspecified) | 4.49 µM | 0.431 µM | 0.452 µM | 0.39 µM | 1.16 µM | 0.424 µM | 6.42 µM | 0.971 µM | 0.246 µM | 0.722 µM | – | – | – | – | – | – | – | – | – | –
COC1CC(OC2C(C)OC(OC3C(C)OC(OC4C(C)OC(O[C@H]5CC[C@@]6(C)C(=CC[C@]7(O)[C@@H]6C[C@@H](O)[C@@]6(C)[C@]7(O)CC[C@@]6(O)C(C)=O)C5)CC4OC)CC3OC)CC2OC)OC(C)C1O (stereo partly specified) | > 12.5 µM | > 12.5 µM | > 12.5 µM | > 12.5 µM | > 12.5 µM | > 12.5 µM | > 12.5 µM | > 12.5 µM | > 12.5 µM | > 12.5 µM | – | – | – | – | – | – | – | – | – | –
Nc1cc2c3c(cccc3c1)C(=O)N(c1ccc(OCCN3CCCC3)cc1)C2=O | 46.5 µM | 47 µM | 26.5 µM | > 61.5 µM | 57.1 µM | 51.6 µM | 49.2 µM | 33.3 µM | 35.2 µM | 34.3 µM | – | – | – | – | – | – | – | – | – | –
Cc1ccc(/C=C2\N=C(N3CCCC(CO)C3)NC2=O)cc1 (stereo unspecified) | > 100 µM | > 100 µM | > 100 µM | > 100 µM | > 100 µM | > 100 µM | > 100 µM | > 100 µM | > 100 µM | > 100 µM | – | – | – | – | – | – | – | – | – | –
O=S(=O)(O)c1cc(S(=O)(=O)O)c2c(N=Nc3ccc(N=Nc4ccccc4)cc3)c(O)ccc2c1 | > 100 µM | > 100 µM | > 100 µM | > 100 µM | > 100 µM | > 100 µM | > 100 µM | > 100 µM | > 100 µM | > 100 µM | – | – | – | – | – | – | – | – | – | –
O=[N+]([O-])/C(C(Cl)=C(Cl)Cl)=C(/Nc1ccccc1)Sc1ccccc1 | 34.9 µM | 36 µM | 33.1 µM | 29.5 µM | 37.6 µM | 59.8 µM | 41.6 µM | 39.9 µM | 34.8 µM | 66.9 µM | – | – | – | – | – | – | – | – | – | –
CCOC(=O)C(C(=O)COC(C)(C)C)[C@@H]1C=C[C@H](OC(C)=O)C1 (stereo partly specified) | > 100 µM | > 100 µM | > 100 µM | > 100 µM | > 100 µM | > 100 µM | > 100 µM | > 100 µM | > 100 µM | > 100 µM | – | – | – | – | – | – | – | – | – | –
C(#Cc1ccccc1)SC1=C(c2ccccc2)S/C(=C(\SC#Cc2ccccc2)c2ccccc2)S1 | > 100 µM | > 100 µM | > 100 µM | > 100 µM | > 100 µM | > 100 µM | > 100 µM | > 100 µM | > 100 µM | > 100 µM | – | – | – | – | – | – | – | – | – | –
COc1ccc2c(c1)CCC/C2=N\NS(=O)(=O)c1c(C)cc(C)cc1C | > 100 µM | > 100 µM | > 100 µM | > 100 µM | > 100 µM | 53.9 µM | 41.6 µM | 42.6 µM | 57.2 µM | 77.2 µM | – | – | – | – | – | – | – | – | – | –
NS(=O)(=O)c1ccc(N=Nc2ccc(O)c(C(=O)O)c2)cc1 | > 100 µM | > 100 µM | > 100 µM | > 100 µM | > 100 µM | > 100 µM | > 100 µM | > 100 µM | > 100 µM | > 100 µM | – | – | – | – | – | – | – | – | – | –
COc1ccc(C2=NC(c3ccc(Cl)cc3)C(c3ccc(Cl)cc3)N2C(=O)N2CCNC(=O)C2)c(OC(C)C)c1 (stereo unspecified) | 4.79 µM | 7.62 µM | 3.33 µM | 3.22 µM | 3.89 µM | > 10 µM | > 10 µM | 3.4 µM | > 10 µM | 4.03 µM | 1.9 µM | 2.26 µM | 3.24 µM | 1.89 µM | 1.8 µM | 1.98 µM | 3.67 µM | 3.47 µM | 3.31 µM | 2.03 µM
